Experimental findings from US5985826A, “Methods of using hepatic-directed compounds in pretargeting strategies” (NeoRx Corporation, priority 1997, dated 1999) are described below.

The subject of series [1] is MAb-streptavidin conjugate. Nature of the series: Serum/blood clearance of MAb-streptavidin conjugate with galactose cluster-biotin conjugates (precomplexed ex vivo, or given after the conjugate). The note with it: precomplexed at 20-fold molar excess; 120 or 12 micrograms i.v.; vs antibody conjugate control; BALB/c female. The class given is in vivo, mouse. As for the experimental part: Some or all of these compounds were assayed for their clearance directing activity in two sets of experiments. The first set of experiments involved ex vivo preparation of a precomplexed monoclonal antibody-streptavidin-biotin-galactose cluster conjugate labeled with I-125, intravenous administration of the conjugate in a mouse model, and measuring serum levels of the conjugate over time. The second set of experiments involved intravenous administration of MAb-streptavidin conjugate followed by administration of biotin-galactose cluster conjugate.
NR-LU-10 antibody (MW 150 kD) was conjugated to streptavidin (MW 66 kD) (as described in Example II above), and radiolabeled with ^125 I/PIP-NHS as described below. The antibody component of the conjugate was radioiodinated using p-aryltin phenylate NHS ester (PIP-NHS) and ^125 I sodium iodide. […]
Experiments were designed and executed to evaluate a 16 galactose cluster-biotin construct without the stabilizing tertiary amine structure of the nitrogen of the amide closest to the biotin, the preparation of such a stabilized construct being described above in Example V. BALB/c female mice (20-25 g) were injected i.v. with 120 micrograms of NR-LU-10-streptavidin conjugate radiolabeled with I-125, and blood was serially collected from n=3 mice. The clearance of the conjugate from the blood was measured of these control mice. […]

In series [2] the test system is I-125 NR-LU-10-streptavidin conjugate. Nature of the series: In vivo pretargeting-format clearance of I-125 NR-LU-10-streptavidin conjugate from circulation. The arrangement: species or system mice (BALB/c). As for the experimental part:
In a third set of experiments conducted in vivo in the pretargeting format (e.g., administration of radiolabeled MAb-streptavidin conjugate followed by administration of clearing agent), the (galactosyl)8 -LC-biotin conjugate was also compared to galactose-HSA-biotin prepared as described above. This comparison was conducted in a Balb/c mouse model and was for the ability to clear an I-125 labeled monoclonal antibody-streptavidin conjugate (1-125 LU-10-streptavidin) from circulation as a function of time. […] Subsequent experiments have further shown that hepatic-directed compounds containing 16 galactose residues provide for even better clearance than those containing 8 galactose residues.
Having shown that precomplexed material could clear rapidly and efficiently from the blood, experiments were conducted to measure the effectiveness of various doses of-the 16 galactose-biotin construct to form rapidly clearing complexes in vivo. Mice received 400 micrograms of I-125 NR-LU-10streptavidin conjugate intravenously, and approximately 22 hours later received the 16 galactose-biotin construct at doses of 100 50, or 10:1 (456, 228 and 45 micrograms, respectively) molar excess to circulating monoclonal antibody-streptavidin conjugate. […] The larger doses may be sufficiently high to achieve competition between complexed and non-complexed 16-galactose-biotin for liver receptors, thereby precluding all but a small initial fraction of the complexed MAb-streptavidin conjugate from clearing via the liver. Following the plateau period, clearing of the conjugate remained slow and was eventually less complete than that achieve with the lower dose (approximately 10% of the conjugate remained in circulation at the higher doses, in comparison to 2% for the lower dose). […] If the 16 galactose-biotin construct is unstable, sufficient biotin may be released at higher doses to that a significant portion of circulating conjugate became blocked thereby and, consequently, was not cleared via hepatic-mediated uptake.

The subject of series [3] is SW-1222 colon tumor xenografts. Nature of the series: Tumor targeting of Y-90-DOTA-biotin after NR-LU-10-streptavidin and 16 galactose-biotin, SW-1222 colon xenograft. The class given is in vivo, nude mice. As for the experimental part:
(§1) Having shown that effective clearing could be achieved with the appropriate does of 16 galactose-biotin construct, studies were undertaken in tumored nude mice to evaluate the potential blockade of tumor-associated conjugate by the small 16 galactose-biotin. Mice bearing either SW-1222 colon tumor xenografts or SHT-1 small cell lung cancer (SCLC) tumor xenografts were pretargeted with NR-LU-10-streptavidin conjugate and, 22 hours later, received 46 micrograms of 16 galactose-biotin. After 2 hours, Y-90-DOTA-biotin prepared as described above was administered, and its uptake and retention in tumor and non-target tissues was evaluated by sacrifice and tissue counting for radioactivity 2 hours post-administration.
(§2) The historical controls were conducted with a 3 hour time period between clearing agent and radioactivity administration.

The test system of series [4] is SHT-1 small cell lung cancer (SCLC) tumor xenografts. Nature of the series: Tumor targeting of Y-90-DOTA-biotin after NR-LU-10-streptavidin and 16 galactose-biotin, SHT-1 SCLC xenograft. The class given is in vivo, nude mice. As for the experimental part:
as §1, §2

Series [5] can be described thus: Non-target organ uptake of Y-90-DOTA-biotin radioactivity in tumored nude mice. The class given is in vivo. The note with it: vs historical controls. As for the experimental part:
as §1, §2

The subject of series [6] is MAb-streptavidin. Nature of the series: Relative stoichiometry of In-111 DOTA-biotin to I-125 MAb-streptavidin at the tumor target site. The class given is in vivo. As to conditions: I-125 MAb-streptavidin and In-111 DOTA-biotin. The source says: Experiments were. also carried out using I-125 labeled MAb-streptavidin conjugate and In-111 labeled DOTA-biotin to assess the relative stoichiometry of those materials at the tumor target site using 16 galactose-biotin as a clearing agent. […] When a similar protocol was employed with the 16 galactose-biotin construct, the ratio of DOTA-biotin to MAb-streptavidin was only 2.65. […] Experiments to assess the nature of this blockade are underway.

Where [7] appears, read: 46 micrograms, Y-90-DOTA-biotin, vs historical controls with (galactose)35-HSA-(biotin)2.
Setting [8] is: vs (galactose)35-HSA-(biotin)2 historical controls.

As for `CN(CCCCSC1O[C@H](CO)[C@H](O)[C@H](O)[C@H]1O)C(=O)CCCCCN(CCCCCC(=O)N(C)CCCCSC1O[C@H](CO)[C@H](O)[C@H](O)[C@H]1O)C(=O)CCCCCN(CCCCCC(=O)N(CCCCCC(=O)N(C)CCCCSC1O[C@H](CO)[C@H](O)[C@H](O)[C@H]1O)CCCCCC(=O)N(C)CCCCSC1O[C@H](CO)[C@H](O)[C@H](O)[C@H]1O)C(=O)CCCCCN(CCCCCC(=O)N(CCCCCC(=O)N(CCCCCC(=O)N(C)CCCCSC1O[C@H](CO)[C@H](O)[C@H](O)[C@H]1O)CCCCCC(=O)N(C)CCCCSC1O[C@H](CO)[C@H](O)[C@H](O)[C@H]1O)CCCCCC(=O)N(CCCCCC(=O)N(C)CCCCSC1O[C@H](CO)[C@H](O)[C@H](O)[C@H]1O)CCCCCC(=O)N(C)CCCCSC1O[C@H](CO)[C@H](O)[C@H](O)[C@H]1O)C(=O)CCCCCN(CCCCCC(=O)N(CCCCCC(=O)N(CCCCCC(=O)N(CCCCCC(=O)N(C)CCCCSC1O[C@H](CO)[C@H](O)[C@H](O)[C@H]1O)CCCCCC(=O)N(C)CCCCSC1O[C@H](CO)[C@H](O)[C@H](O)[C@H]1O)CCCCCC(=O)N(CCCCCC(=O)N(C)CCCCSC1O[C@H](CO)[C@H](O)[C@H](O)[C@H]1O)CCCCCC(=O)N(C)CCCCSC1O[C@H](CO)[C@H](O)[C@H](O)[C@H]1O)CCCCCC(=O)N(CCCCCC(=O)N(CCCCCC(=O)N(C)CCCCSC1O[C@H](CO)[C@H](O)[C@H](O)[C@H]1O)CCCCCC(=O)N(C)CCCCSC1O[C@H](CO)[C@H](O)[C@H](O)[C@H]1O)CCCCCC(=O)N(CCCCCC(=O)N(C)CCCCSC1O[C@H](CO)[C@H](O)[C@H](O)[C@H]1O)CCCCCC(=O)N(C)CCCCSC1O[C@H](CO)[C@H](O)[C@H](O)[C@H]1O)C(=O)CCCCCNC(=O)CCCC[C@@H]1SC[C@@H]2NC(=O)N[C@@H]21` (stereo partly drawn) [16 galactose-biotin], the “Blood clearance of precomplexed conjugate” value in series [1] is “extremely rapid clearance from the blood”. Besides, the “Efficiency at removing circulating conjugate, lower and higher doses” value in series [2] (12, 23 and 228 microgram, vs 46 microgram) is listed as “less efficient at removing circulating conjugate”. Besides, in series [2] (12 and 23 microgram), the “Rebound effect, lower doses” value is “significant rebound effect”. Further, the “Clearing effectiveness at 46 micrograms vs (galactose)35-HSA-(biotin)2” value in series [2] (46 microgram, vs previously optimized dose) is on record as “more effective than the previously optimized dose of (galactose)35 -HSA-(biotin)2”. The “Effectiveness at clearing conjugate, each dose” value in series [2] (100, 50 or 10:1 molar excess (456, 228 and 45 micrograms), about 22 h after 400 micrograms conjugate) is given as “effective at clearing conjugate”. In series [2] (decreasing dose comparison), this compound yielded an Optimal clearing dose of 46 microgram. In addition, in series [2] (higher doses (456 and 228 micrograms; 100:1, 50:1)), the “Conjugate remaining in circulation, higher doses” value is listed as “approximately 10%”. In addition, in series [2] (larger doses (456, 228 micrograms), after administration of 16 galactose-biotin), the “Duration of plateau in conjugate clearance” value is “about 1 hour”. The “Conjugate remaining in circulation, lower dose” value in series [2] (lower dose (45 micrograms; 10:1)) is listed as 2%. In addition, the “Clearing of MAb-streptavidin from the circulation, summary” value in series [2] (vascular and extravascular spaces) is “effective construct for clearing MAb-streptavidin from the circulation”. For the same compound, the “Tumor targeting, high antigen-expressing colon xenograft” value in series [3] (setting [7]) is “slightly lower”. For the same compound, the “Tumor uptake of radioactivity, SW-1222, overall assessment” value in series [3] (setting [8]) is “roughly equivalent”. Moreover, the “Tumor targeting, low antigen-expressing SCLC xenograft” value in series [4] (setting [7]) is recorded as “slightly higher”. Besides, the “Tumor uptake of radioactivity, SHT-1, overall assessment” value in series [4] (setting [8]) is “roughly equivalent”. Moreover, in series [5] (2 hours between clearing agent and radioactivity), the Liver uptake result is on record as “slightly higher levels”. For the same compound, the “Non-target organ uptake except liver” value in series [5] (Y-90 radioactivity) is given as “comparable in all tissues except liver”. Also, the “Ratio of DOTA-biotin to MAb-streptavidin at the tumor” value in series [6] came out at 2.65.
For the compound `CN(CCCCSC1O[C@H](CO)[C@H](O)[C@H](O)[C@H]1O)C(=O)CCCCCN(CCCCCC(=O)N(C)CCCCSC1O[C@H](CO)[C@H](O)[C@H](O)[C@H]1O)C(=O)CCCCCN(CCCCCC(=O)N(CCCCCC(=O)N(C)CCCCSC1O[C@H](CO)[C@H](O)[C@H](O)[C@H]1O)CCCCCC(=O)N(C)CCCCSC1O[C@H](CO)[C@H](O)[C@H](O)[C@H]1O)C(=O)CCCCCN(CCCCCC(=O)N(CCCCCC(=O)N(CCCCCC(=O)N(C)CCCCSC1O[C@H](CO)[C@H](O)[C@H](O)[C@H]1O)CCCCCC(=O)N(C)CCCCSC1O[C@H](CO)[C@H](O)[C@H](O)[C@H]1O)CCCCCC(=O)N(CCCCCC(=O)N(C)CCCCSC1O[C@H](CO)[C@H](O)[C@H](O)[C@H]1O)CCCCCC(=O)N(C)CCCCSC1O[C@H](CO)[C@H](O)[C@H](O)[C@H]1O)C(=O)CCCCCNC(=O)CCCC[C@@H]1SC[C@@H]2NC(=O)N[C@@H]21` (stereo partly drawn) [(galactosyl)8 -LC-biotin], in series [2] (Balb/c mouse, vs galactosylated-HSA-biotin), the “Ability to clear I-125 LU-10-streptavidin from circulation” value is given as “comparable to galactosylated-HSA-biotin”.
